From patent publication US11135163B2, “Peptide hydrogel properties and its applications” (Kansas State University Research Foundation, priority 2014, dated 2021)

Assays:
female mice of FVB = assay: Immune response after subcutaneous injection of hydrogel in mice; assay type: in vivo, mouse
Protocol: Hydrogel: 1% h9e peptide was prepared in sodium bicarbonate solution, and 1% BSA was prepared in PBS solution as trigger solution. The h9e peptide solution and BSA solution was mixed at 1:1 volume ratio, and incubated at 37° C. for 30 min to prepare hydrogel with 0.5% h9e peptide concentration and 0.5% BSA with a gel strength of about 450 Pa.
Experiment: In trials #1 and #2, healthy female mice of FVB 6-15 week old were injected subcutaneously in the inguinal region with 100 or 200 uL of the hydrogel or control solutions in a blinded study. Weight and external body temperature were measured daily for up to 2 weeks.
Mammary fat pads from the inguinal region were removed at necropsy. Tissues were fixed with 10% formalin and processing for a 5 um thickness sectioning. Samples were stained with hematoxylin and eosin (H&E). Hydrogel trial 3 was completed in the same manner described above with the following exceptions. 200 uL of hydrogel or control solutions were injected subcutaneously on the back of the animal.
Microscope slide preparation: Samples of the control, and hydrogel treated tissues were submitted for histopath processing at Diagnostic Laboratory at KSU Veterinary School in Mosier Hall. Slides and paraffin blocks were labeled 1 as control and 4 as hydrogel treated, respectively. Adipose tissue samples were processed on the Sakua Tissue-Tek VIP 6, model #VIP6-A1. Then, the samples were then embedded using the Sakura Tissue-Tek Tissue Embedding Console System model #4710. For microscope slide preparation, the paraffin blocks were cut on a 1215 Leitz Rotary Microtome and sectioned at 5 microns. Sections were then mounted on a microscope slide from a water bath. H&E staining of the slides done on an automated stainer, Leica Autostainer XL, model #ST5060. Lastly, the stained slides are covered slipped by an automatic coverslippper, Leica CV5030.
Inflammatory analysis: The fixed tissues of animals without treatment, treated with PBS buffer and h9e hydrogel were further analyzed for inflammatory effects including VWF8 (blood vessel), Arginase I (wound healing macrophage), Fspl and α-smooth muscle actin (fibroblast), CCL2 (pro-inflammatory cytokine), and TGF-beta (immunosuppressive cytokine). 796 (FVB normal mammary gland) was used as negative control. Image J arbitrary unit was used to evaluate these tests using Image J software.

[1] = Rheology of h9e/BSA hydrogel formation (storage modulus G′); assay type: physicochemical; settings: for G′ after 2 hours of testing: 3 mM h9e
Protocol: For albumin triggered hydrogel formation, 10 mM (1.74 wt %) peptide was first dissolved in 100 mM NaHCO3 solution. BSA and HSA were dissolved in water with 5 wt % concentration. The peptide solution and albumin solution were then mixed at different ratios for final mixtures of 1, 2, 3 mM h9e peptide with albumin from 0.1 to 5 wt %.
The storage (G′) and loss (G″) moduli of h9e hydrogels with different peptide/albumin ratios were measured on a rheometer system C-VOR 150 (Malvern instruments, Malvern, Worcestershire WR141XZ, United Kingdom) with a 20 mm diameter parallel plate test system. All rheological tests were carried out at 37° C. […]

[2] = Hydrogel formation and gelation time sweep of h9e with commercial mouse blood; settings: all concentrations except 1%
Protocol: About 150 μL of the appropriate wt % of peptide solution was added to 150 μL of commercial mouse blood in a small vial. The mixture was pipetted 5 times to ensure continuity and observed for visual hydrogel formation. Visual observation of hydrogel formation was recorded via a Nikon Coolpix L22 camera (FIG. 9).
Hydrogel gelation time sweep (instantaneous): A time sweep was conducted on the hydrogel and commercial mouse blood mixture. 150 μL of the appropriate wt % of peptide solution was added to 150 μL of commercial mouse blood in a small vial. The mixture was pipetted about 5 times to ensure continuity and added to the rheometer for evaluation. Both storage and loss moduli, G′ and G″ respectively, of the h9e/blood hydrogel were determined using a C-VOR 150 rheometer (Malvern Instruments, Malvern, Worcestershire, United Kingdom). A plate 20 mm in diameter was used with 1% strain and frequency of 1 Hz at a 37° C. temperature for 30 minutes.
Hydrogel stability gelation time sweep (24 hours post gelatinization): A time sweep was conducted on the hydrogel and commercial mouse blood mixture. 24 hours post gelation. […] Both storage and loss moduli, G′ and G″ respectively, of the h9e/blood hydrogel was determined using a C-VOR 150 rheometer (Malvern Instruments, Malvern, Worcestershire, United Kingdom). […]

[3] = Comparison of material properties of 3D cell culture hydrogels; assay type: physicochemical
HeLa cells = assay: HeLa cell viability (CCK-8) in 3D h9e hydrogel; assay type: cell-based; settings: same amount of camptothecin
Protocol: Cell culture and drug efficacy/diffusion tests: HeLa cells were grown in the hydrogel in 3D. Aliquots of HeLa cells solution were added into […] hydrogel with DMEM containing 10% FBS with a final peptide concentration of 0, 0.25, 0.5 and 1 wt %. 100 μl of cell mixture solution (3×10^4 cells per well) was seeded into a 96-well culture plate (Becton Dickinson Labware, Franklin Lakes, N.J.) and placed in an incubator (Nuair, Playmouth, Minn.) in a humidified 5% CO2 atmosphere at 37° C. for about 30 min. After complete hydrogelation, 10 μl of DMEM containing 0, 50 uM, 100 uM, or 200 uM camptothecin was added on top of the hydrogel to obtain camptothecin concentrations of 0 μM, 3.125 μM, 6.25 μM, and 12.5 μM, respectively, upon total diffusion in the hydrogel. Then, 50 ul of DMEM was carefully added to the top of the hydrogel to prevent drying during long-term incubation. All measurements were made at least in triplicate, and the plates were incubated for 3 days. A CCK-8 assay was used to determine cell viability after each treatment. 10 μL of CCK solution was added to each well. After 4 h of incubation, the absorbance at 450 nm was collected on a microplate reader (mQuant, Bio-Tek) and corrected by subtracting the background signal from a wall containing only 160 ul DMEM containing 10% FBS. […]

- inflammatory effects compared to controls (female mice of FVB; 0.5% h9e/0.5% BSA hydrogel, subcutaneous, mice): No significant inflammatory effects
- histological images, hydrogel treated versus control (female mice of FVB; H&E staining): no significant difference
- daily activity of treated animals (female mice of FVB; up to 2 weeks): same normal daily activity
- hydrogel formation ([1]; 1 mM peptide with 1 wt % BSA, 2 hour test): performed like a Newtonian liquid
- stable G′ ([1]; 3 mM h9e peptide solution mixed with 5% BSA, 37° C.): around 200 Pa
- behaviour of peptide solution alone ([1]; 3 mM h9e solution without BSA, 30 min test): performed as Newtonian liquid
- G′ after 2 hours of testing ([1]; 0.1 wt % BSA): about 110 Pa
- G′ after 2 hours of testing ([1]; 0.5 wt % BSA): over 900 Pa
- G′ after 2 hours of testing ([1]; 1 wt % BSA): 680 Pa
- G′ after 2 hours of testing ([1]; 5 wt % BSA): 200 Pa
- gel strength ([1]; 0.5% h9e peptide and 0.5% BSA, incubated at 37° C. for 30 min): about 450 Pa
- viscosity, strength and stability 24 hours post gelation versus instantaneous [2]: increased
- Porosity [3]: 50-200 nm
Substance: H-FLIVIGSIIGPGGDGPGGD-NH2 [h9e, FLIVIGSIIGPGGDGPGGD]
- absorption of hydrogel at necropsy (female mice of FVB; trial 3, 200 uL subcutaneously on the back): complete absorption of hydrogel
- HeLa cell viability across h9e hydrogel concentrations (HeLa cells): cell viability was comparable
